Where two headings read alike, the source gives them in different places.
Experiments:
[1] = Metabolic Stability in Human Hepatocytes; type: in vitro ADME; details: cryopreserved human hepatocytes, 37° C.
Experimental: A 2.5 uL aliquot of 100 μM test compound was incubated with 247.5 uL of cryopreserved hepatocytes suspended in serum-free incubation medium at 5×10^5 viable cells/mL. The mixture was incubated at 37° C. and shaken at 500 rpm for the designated time points (0.5, 15, 30, 60, 90, or 120 min). At each time point, 25 μL aliquot of incubation mixture was transferred to 125 μL of cold acetonitrile containing internal standard, followed by centrifugation for 30 min at 3,220 g. 100 μL of supernatant was mixed with 100 μL of distilled water for analysis by LC-MS/MS. Peak areas were determined from extracted ion chromatograms and in vitro half-life (t1/2) was determined from the concentration vs time regression slope, in vitro t1/2=0.693/k. Conversion of the in vitro t1/2 (in min) into the in vitro intrinsic clearance (in vitro CLint, in μL/min/10^6 cells) is done using: in vitro CLint=kV/N.

in vivo [2] = type: in vivo, mouse; details: 001 (metabolite) in brain after 321 IV 2 mg/kg
Experimental: Total fifteen male mice were used in this study with n=3 mice/time point with sparse sampling study design. Animals were administered through intravenous route with solution formulation of 321 at 2 mg/kg dose.
(§1) The extraction procedure for plasma/brain samples and the spiked plasma/brain calibration standards were identical (PMSF Stabilized Plasma and Brain used for Preparation of calibration standards): A 20 μL of study sample plasma/brain or spiked plasma/brain calibration standard was added to individual pre-labeled micro-centrifuge tubes followed by 200 μL of internal standard prepared in acetonitrile (Rosuvastatin, 50 ng/mL) was added except for blank, where 200 μL of acetonitrile was added. Samples were vortexed for 5 minutes. Samples were centrifuged for 10 minutes at a speed of 4000 rpm at 4° C. Following centrifugation, 200 μL of clear supernatant was transferred in 96 well plates and analyzed using LC-MS/MS.
(§2) Brain samples were diluted (1-part of tissue: 2-part of buffer) and homogenized. The homogenate was submitted for bioanalysis and the concentrations (ng/mL) received were corrected with dilution factor (3×) and the final reported concentrations were represented in ng/g.
The plasma and brain concentration-time data of 321 and 001 were used for the pharmacokinetic analysis.
LLOQ: 321: 1.02 ng/mL for plasma and brain 001: 1.01 ng/mL for plasma and brain

[3] = Pharmacokinetics of 358, single IV in male C57BL/6 mice; type: in vivo, mouse
Experimental: Total fifteen male mice were used in this study with n=3 mice/time point with sparse sampling study design. Animals were administered through intravenous route with solution formulation of 358 at 2 mg/kg dose.
The extraction procedure for plasma/brain samples and the spiked plasma/brain calibration standards were identical (PMSF Stabilized Plasma and Brain used for Preparation of calibration standards):
as §1, with “A” for “The extraction procedure for plasma/brain samples and the spiked plasma/brain calibration standards were identical (PMSF Stabilized Plasma and Brain used for Preparation of calibration standards): A”, “(Rosuvastatin+Cetrizine,” for “(Rosuvastatin,”
Note: Brain samples were diluted (1-part of tissue: 2-part of buffer) and homogenized. The homogenate was submitted for bioanalysis and the concentrations (ng/mL) received were corrected with dilution factor (3×) and the final reported concentrations were represented in ng/g.
The plasma and brain concentration-time data of 358 and 001 were used for the pharmacokinetic analysis.
LLOQ: 358: 1.02 ng/mL for plasma and brain 001: 1.01 ng/mL for plasma and brain

[4] = in vivo; cited from earlier work
in vivo [5] = type: in vivo, mouse; details: 001 (metabolite) in brain after 323 IV 2 mg/kg
Experimental: Total fifteen male mice were used in this study with n=3 mice/time point with sparse sampling study design. Animals were administered through intravenous route with solution formulation of 323 at 2 mg/kg dose.
as §1, with “(Rosuvastatin+Cetrizine,” for “(Rosuvastatin,”
as §2
The plasma and brain concentration-time data of 323 and 001 were used for the pharmacokinetic analysis.
LLOQ: 323: 1.02 ng/mL for plasma and brain 001: 1.01 ng/mL for plasma and brain

[6] = Hydrolysis Assay - Condition 1 (SGF); type: physicochemical; details: SGF with pepsin pH 1.5, 37° C., 0.5 mM
Experimental: 50 μL of compound (10 mM) in DMSO was diluted into 950 μL of Simulated Gastric Fluid (SGF) with pepsin (pH 1.5) to a final concentration of 0.5 mM. The hydrolysis kinetics were conducted at 37° C. and measured by LCMS at a certain time interval.
(§3) The corresponding LCMS chromatogram were recorded and the conversions were calculated by integration of each peak.
(§4) • 1) LCMS spectra were obtained using Agilent 1200G1956A or SHIMADZU LCMS-2020. Standard LCMS conditions were as follows (running time 1.55 minutes): • Acidic condition: Mobile Phase A: 0.0375% TFA in water (v/v). Mobile Phase B: 0.01875% TFA in acetonitrile (v/v); Column: Kinetex EVO C18 30*2.1 mm, 5 μm. • Basic condition: Mobile Phase A: 0.025% NH3·H2O in water (v/v). Mobile Phase B: Acetonitrile; Column: Kinetex EVO C18 2.1×30 mm, 5 μm. • 2) Conversion (%)=peak area 1/(peak area 1+peak area 2)*100%, peak area 1 is the integration of hydrolyzed product, peak area 2 is the integration of starting material.

[7] = type: in vitro ADME, mouse; details: prodrug remaining, 5 μM, 37° C.
Experimental: (§5) Each test was carried out in duplicate for each time point; 0 min, 15 min, 30 min, 60 min, 120, 240 min. […]

[8] = type: in vitro ADME, human; details: prodrug remaining, 5 μM, 37° C.
Experimental: as §5

[9] = Hydrolysis Assay - Condition 2 (DI Water); type: physicochemical; details: 25° C., 0.5 mM
Experimental: 50 μL of compound (10 mM) in DMSO was diluted into 950 μL of DI water to a final concentration of 0.5 mM. The hydrolysis kinetics were conducted at 25° C. and measured by LCMS at a certain time interval.
as §3, §4

[10] = fermentation, exposure to light, exposure to heat, aqueous medium; cited from earlier work

## COc1ccc([C@@]23CCC(=O)C[C@@H]2N(C)CC3)cc1OC (racemic) [Compound 001, (3aS,7aS)-3a-(3,4-dimethoxyphenyl)-1-methyl-2,3,4,5,7,7a-hexahydroindol-6-one, reference compound]
[1]
  half-life: 17 min
  hepatocyte CLint: 40 µL/min/1e6 cells
In vivo [2]
  AUClast: 12.72 ng·h/g
[3]; 001 (metabolite) in brain after 358 IV 2 mg/kg
  AUClast: 190.88 ng·h/g
[4]
  half-life in plasma: less than 2 hours
In vivo [5]
  AUClast: 411.95 ng·h/g

## COc1ccc([C@@]23CCC(OC(=O)OC(C)(C)C)=C[C@@H]2N(C)CC3)cc1OC [Compound 358, [(3aS,7aS)-3a-(3,4-dimethoxyphenyl)-1-methyl-3,4,5,7a-tetrahydro-2H-indol-6-yl] tert-butyl carbonate]
[6]; 1 min
  Condition 1 Conversion (%): 0%
[6]; 5 min
  Condition 1 Conversion (%): 0%
[6]; 30 min
  Condition 1 Conversion (%): 0%
[6]; 1 h
  Condition 1 Conversion (%): 5%
[6]; 4 h
  Condition 1 Conversion (%): 100%
[6]; 24 h
  Condition 1 Conversion (%): 100%
[7]; 0 min
  Mouse Plasma Prodrug (%): 100%
[7]; 15 min
  Mouse Plasma Prodrug (%): 14.8%
[7]; 30 min
  Mouse Plasma Prodrug (%): 10.3%
[7]; 60 min
  Mouse Plasma Prodrug (%): 5.4%
[7]; 120 min
  Mouse Plasma Prodrug (%): 0.0%
[7]; 240 min
  Mouse Plasma Prodrug (%): 0.0%
[8]; 0 min
  Human Plasma Prodrug (%): 100%
[8]; 15 min
  Human Plasma Prodrug (%): 75.4%
[8]; 30 min
  Human Plasma Prodrug (%): 58.1%
[8]; 60 min
  Human Plasma Prodrug (%): 35.5%
[8]; 120 min
  Human Plasma Prodrug (%): 11.7%
[8]; 240 min
  Human Plasma Prodrug (%): 0.7%
[9]; 1 min
  Condition 2 Conversion (%): 0%
[9]; 5 min
  Condition 2 Conversion (%): 0%
[9]; 30 min
  Condition 2 Conversion (%): 0%
[9]; 1 h
  Condition 2 Conversion (%): 0%
[9]; 4 h
  Condition 2 Conversion (%): 83.46%
[9]; 24 h
  Condition 2 Conversion (%): 100%
[3]; 358 after 358 IV 2 mg/kg
  brain concentrations quantifiable up to: ≤ 0.08 h
[3]; male, C57BL/6, mouse, brain, 358 after 358 IV 2 mg/kg, read-out: Brain concentrations (mean)
  concentration at 0.08 h: 18.3 ng/g
[3]; male, C57BL/6, mouse, in vivo, iv, 2 mg/kg
  plasma concentrations quantifiable up to: up to 0.25 h
[3]; male, C57BL/6, mouse, plasma, 358 after 358 IV 2 mg/kg, read-out: Plasma concentrations (mean)
  concentration at 0.08 h: 14.3 ng/mL
[3]; male, C57BL/6, mouse, plasma, 358 after 358 IV 2 mg/kg, 0.25 h, average of two values, read-out: Plasma concentrations (mean)
  concentration at 0.25 h: 1.51 ng/mL

## COc1ccc([C@@]23CCC(=O)C[C@@H]2N(C)CC3)cc1OC [Mesembrine, 3a-(3,4-dimethoxyphenyl)-octahydro-1-methyl-6H-indol-6-one]
[10]
  stability: unstable
